# From US20040235939A1, “Synthesis of peloruside a and analogs thereof for use as antitumor agents” (priority 2003, published 2004)
# Where two headings read alike, the source gives them in different places.
# How the values were obtained:
# LoVo = assay: SRB cytotoxicity assay, LoVo; type: cell-based; conditions: Homo sapiens, Colon, read-out: GI50
# Method: (§1) Cells were treated on Days 1, 3, 5, and 7 with 5 μL of media, vehicle, or drug. Peloruside A was resuspended in 0.1% DMSO and added to wells to a final concentration of 0.01, 0.1, 1, 10 or 100 nM. Taxol® (Sigma-Aldrich) was resuspended in 0.1% ethanol and added to cells to a final concentration of 0.1, 1, 10, 100, or 1000 nM.
# (§2) The amount of surviving cells was measured using the sulforhodamine B (SRB) assay as previously described (Skehan et al., New colorimetric cytotoxicity assay for anticancer-drug screening. J. Natl. Cancer Inst., 1990. 82(13): p. 1107-12). Cells were fixed on Days 5, 7, and 9 (representing 4, 6, and 8 days of exposure to drug or control, respectively) with 50% (w/v) trichloroacetic acid for 1 hour at 4° C., rinsed thoroughly with water, and dried overnight. The dried cells were stained with 4% sulforhodamine B in 1% acetic acid, rinsed thoroughly and dried overnight. The bound dye was resuspended in 10 mM Tris and the absorbance was read at 492 nm. Percent growth inhibition (GI) was calculated as follows: %GI=(1−(absorbance sample/absorbance vehicle))×100. The absorbance value for each drug concentration and control represents the average of 6 replicates. The %GI was plotted against the log[drug] to generate the growth curves. The concentration of drug required to inhibit growth by 50% (GI50) was calculated for each time point.
# HCT-15 = assay: SRB cytotoxicity assay, HCT-15; type: cell-based; conditions: Homo sapiens, HCT-15, Colon, read-out: GI50
# Method: as §1, §2
# HCT-116 = assay: SRB cytotoxicity assay, HCT-116; type: cell-based; conditions: Homo sapiens, HCT-116, Colon, read-out: GI50
# Method: as §1, §2
# Capan-1 = assay: SRB cytotoxicity assay, Capan-1; type: cell-based; conditions: Homo sapiens, Capan-1, Pancreas, read-out: GI50
# Method: as §1, §2
# Mia PaCa-2 = assay: SRB cytotoxicity assay, Mia PaCa-2; type: cell-based; conditions: Homo sapiens, Mia PaCa-2, Pancreas, read-out: GI50
# Method: as §1, §2
# SK-MEL-5 = assay: SRB cytotoxicity assay, SK-MEL-5; type: cell-based; conditions: Homo sapiens, SK-MEL-5, Melanoma, read-out: GI50
# Method: as §1, §2
# SK-MEL-28 = assay: SRB cytotoxicity assay, SK-MEL-28; type: cell-based; conditions: Homo sapiens, SK-MEL-28, Melanoma, read-out: GI50
# Method: as §1, §2
# SK-OV-3 = assay: SRB cytotoxicity assay, SK-OV-3; type: cell-based; conditions: Homo sapiens, SK-OV-3, Ovarian, read-out: GI50
# Method: as §1, §2
# CAKI-1 = assay: SRB cytotoxicity assay, CAKI-1; type: cell-based; conditions: Homo sapiens, CAK1-1, Renal, read-out: GI50
# Method: as §1, §2
# A498 = assay: SRB cytotoxicity assay, A498; type: cell-based; conditions: Homo sapiens, A498, Renal, read-out: GI50
# Method: as §1, §2
# PC-3 = assay: SRB cytotoxicity assay, PC-3; type: cell-based; conditions: Homo sapiens, PC-3, Prostate, read-out: GI50
# Method: as §1, §2
# DU-145 = assay: SRB cytotoxicity assay, DU-145; type: cell-based; conditions: Homo sapiens, DU-145, Prostate, read-out: GI50
# Method: as §1, §2
# BT-549 = assay: SRB cytotoxicity assay, BT-549; type: cell-based; conditions: Homo sapiens, BT-549, Breast, read-out: GI50
# Method: as §1, §2
# MDA-MB-231 = assay: SRB cytotoxicity assay, MDA-MB-231; type: cell-based; conditions: Homo sapiens, MB-MDA-231, Breast, read-out: GI50
# Method: as §1, §2
# NCI-H460 = assay: SRB cytotoxicity assay, NCI-H460; type: cell-based; conditions: Homo sapiens, NCl-H460, Lung, read-out: GI50
# Method: as §1, §2
# NCI-H23 = assay: SRB cytotoxicity assay, NCI-H23; type: cell-based; conditions: Homo sapiens, NCl-H23, Lung, read-out: GI50
# Method: as §1, §2
# NCI-H2887 = assay: SRB cytotoxicity assay, NCI-H2887; type: cell-based, human; conditions: NCl-H2887, Lung
# Method: as §1, §2
# Hep-G2 = assay: SRB cytotoxicity assay, Hep-G2; type: cell-based; conditions: Homo sapiens, Hep G2, Liver, read-out: GI50
# Method: as §1, §2
# [1] = tested on: BSC-1 (Monkey Kidney epithelial) cells; assay: Immunofluorescent staining of tubulin in BSC-1 cells; type: cell-based; conditions: 200 nM of Taxol® or 50 nM of Peloruside A
# ptx10 cells = assay: Cell Titer-Glo cell viability, Taxol-resistant ptx10 cells; conditions: Homo sapiens, PTX10, 48 h, read-out: concentration to reduce cell viability to approximately 50%
# Method: (§3) These cell lines have specific amino acid mutations in tubulin that prevent Taxol®-binding. […] Synthetic (+)-Peloruside A was used for the present example.
# (§4) 1A9, ptx10 and ptx22 cells were plated in 96-well plates to approximately 50% confluency. On the next day, Taxol® or Peloruside A was added to each well and incubated for 48 hours. A final concentration of 1, 2, 3, 4, 5, 8, 10, 20, 30, 50, 100, 300, 500, or 1000 nM of Taxol® was used. A final concentration of 10, 20, 30, 40, 50 or 70 nM of Peloruside A was used. Cell viability was measured using the Cell Titer-Glo Luminescent Cell Viability Assay (Promega). FIGS. 80-82 show bar graphs of cell viability at various concentrations of Peloruside A and Taxol®.
# ptx22 cells = assay: Cell Titer-Glo cell viability, Taxol-resistant ptx22 cells; conditions: Homo sapiens, 48 h, read-out: concentration to reduce cell viability to approximately 50%
# Method: as §3, §4
smiles,measurement,setting,value
"CC(=O)O[C@H]1C(=O)[C@@]2(C)[C@H]([C@H](OC(=O)c3ccccc3)[C@]3(O)C[C@H](OC(=O)[C@H](O)[C@@H](NC(=O)c4ccccc4)c4ccccc4)C(C)=C1C3(C)C)[C@]1(OC(C)=O)CO[C@@H]1C[C@@H]2O [Paclitaxel, paclitaxel, reference compound]",GI50,"LoVo; 96 h, 4 Days",1.91 nM
same,GI50,"LoVo; 144 h, 6 Days",1.95 nM
same,GI50,"LoVo; 192 h, 8 Days",3.92 nM
same,GI50,"HCT-15; 96 h, 4 Days",49.1 nM
same,GI50,"HCT-15; 144 h, 6 Days",24 nM
same,GI50,"HCT-15; 192 h, 8 Days",26.7 nM
same,GI50,"HCT-116; 96 h, 4 Days",1 nM
same,GI50,"HCT-116; 144 h, 6 Days",0.58 nM
same,GI50,"HCT-116; 192 h, 8 Days",0.3 nM
same,GI50,"Capan-1; 96 h, 4 Days",5.68 nM
same,GI50,"Capan-1; 144 h, 6 Days",0.91 nM
same,GI50,"Capan-1; 192 h, 8 Days",1.43 nM
same,GI50,"Mia PaCa-2; 96 h, 4 Days",0.73 nM
same,GI50,"Mia PaCa-2; 144 h, 6 Days",0.53 nM
same,GI50,"Mia PaCa-2; 192 h, 8 Days",0.27 nM
same,GI50,"SK-MEL-5; 96 h, 4 Days",0.82 nM
same,GI50,"SK-MEL-5; 144 h, 6 Days",1 nM
same,GI50,"SK-MEL-5; 192 h, 8 Days",0.27 nM
same,GI50,"SK-MEL-28; 96 h, 4 Days",0.76 nM
same,GI50,"SK-MEL-28; 144 h, 6 Days",0.2 nM
same,GI50,"SK-MEL-28; 192 h, 8 Days",0.01 nM
same,GI50,"SK-OV-3; 144 h, 6 Days",2.21 nM
same,GI50,"SK-OV-3; 192 h, 8 Days",1.07 nM
same,GI50,"CAKI-1; CAKI-1, 96 h, 4 Days",4.52 nM
same,GI50,"CAKI-1; CAKI-1, 144 h, 6 Days",1.21 nM
same,GI50,"CAKI-1; CAKI-1, 192 h, 8 Days",1.17 nM
same,GI50,"A498; 96 h, 4 Days",46.1 nM
same,GI50,"A498; 144 h, 6 Days",9.75 nM
same,GI50,"A498; 192 h, 8 Days",7.57 nM
same,GI50,"PC-3; 96 h, 4 Days",0.78 nM
same,GI50,"PC-3; 144 h, 6 Days",0.47 nM
same,GI50,"PC-3; 192 h, 8 Days",0.27 nM
same,GI50,"DU-145; 96 h, 4 Days",0.54 nM
same,GI50,"DU-145; 144 h, 6 Days",0.53 nM
same,GI50,"DU-145; 192 h, 8 Days",0.49 nM
same,GI50,"BT-549; 96 h, 4 Days",1.76 nM
same,GI50,"BT-549; 144 h, 6 Days",1.2 nM
same,GI50,"BT-549; 192 h, 8 Days",0.18 nM
same,GI50,"MDA-MB-231; MDA-MB-231, 144 h, 6 Days",0.09 nM
same,GI50,"MDA-MB-231; MDA-MB-231, 192 h, 8 Days",0.01 nM
same,GI50,"NCI-H460; NCI-H460, 96 h, 4 Days",0.25 nM
same,GI50,"NCI-H460; NCI-H460, 144 h, 6 Days",0.57 nM
same,GI50,"NCI-H460; NCI-H460, 192 h, 8 Days",0.56 nM
same,GI50,"NCI-H23; NCI-H23, 96 h, 4 Days",1 nM
same,GI50,"NCI-H23; NCI-H23, 144 h, 6 Days",1.12 nM
same,GI50,"NCI-H23; NCI-H23, 192 h, 8 Days",0.18 nM
same,GI50,"NCI-H2887; Homo sapiens, NCI-H2887, 144 h, 6 Days, read-out: GI50",643 nM
same,GI50,"NCI-H2887; Homo sapiens, NCI-H2887, 192 h, 8 Days, read-out: GI50",6.16 nM
same,GI50,NCI-H2887; 4 Days,4 Days: Resistant
same,GI50,"Hep-G2; HepG2, 96 h, 4 Days",2.82 nM
same,GI50,"Hep-G2; HepG2, 144 h, 6 Days",0.47 nM
same,GI50,"Hep-G2; HepG2, 192 h, 8 Days",0.63 nM
same,formation of a bipolar spindle,[1],the bipolar spindle does not form
same,IC50,ptx10 cells,> 100 nM
same,IC50,ptx22 cells,> 100 nM
